Data: paper PMC7435778, “Bidirectional Modulation of the Voltage-Gated Sodium (Nav1.6) Channel by Rationally Designed Peptidomimetics” (Molecules, 2020)
Read-outs that look alike come from different tables or passages of the source. Starred links: 1 amine or outer side, 2 acyl side, 3 side chain; linkers in the order of their positions; H or OH if unused. Non-standard residues stand in square brackets, D forms with d. Residues, ends and D or L forms follow the SMILES beside them. *: point of attachment. Tyr(OtBu) = CC(C)(C)Oc1ccc(C[C@H](N[*:1])C(=O)[*:2])cc1; Glu(OtBu) = CC(C)(C)OC(=O)CC[C@H](N[*:1])C(=O)[*:2]; Fmoc = O=C(OCC1c2ccccc2-c2ccccc21)*; Decanoyl = CCCCCCCCCC(=O)*; Cbz = O=C(OCc1ccccc1)*; Boc = CC(C)(C)OC(=O)*; Bz = O=C(c1ccccc1)*; OtBu = CC(C)(C)O*; tBu = CC(C)(C)*

T1: FGF14 (Homo sapiens, UniProt Q92915)
T1 sequence (Q92915 64-252 isoform Q92915-2): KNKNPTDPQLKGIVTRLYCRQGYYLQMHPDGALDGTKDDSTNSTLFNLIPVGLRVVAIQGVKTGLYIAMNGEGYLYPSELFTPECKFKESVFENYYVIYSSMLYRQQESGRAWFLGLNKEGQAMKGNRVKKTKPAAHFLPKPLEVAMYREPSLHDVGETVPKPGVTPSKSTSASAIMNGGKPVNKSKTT

T2: fibroblast growth factor 14 (FGF14), aa 64–252 (UniProt Q92915)
T2 sequence: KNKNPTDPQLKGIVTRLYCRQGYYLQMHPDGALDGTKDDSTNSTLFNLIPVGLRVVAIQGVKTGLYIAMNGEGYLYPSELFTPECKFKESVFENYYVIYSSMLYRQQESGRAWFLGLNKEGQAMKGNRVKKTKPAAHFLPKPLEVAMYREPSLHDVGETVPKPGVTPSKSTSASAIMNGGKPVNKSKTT


Tests used:
Nav1.6 channel [1] = target: T3, Nav1.6 channel (Homo sapiens, UniProt Q9UQD0); assay: Whole-cell patch-clamp electrophysiology in HEK-Nav1.6 cells; assay type: cell-based; details: 20 µM; for Tau of Fast Inactivation: at −10 mV, DMSO 1.17 ± 0.09; for Long Term Inactivation, depolarization cycle 4 (INa/INa,Cycle 1) / Long Term Inactivation, depolarization cycle 3 (INa/INa,Cycle 1) / Long Term Inactivation, depolarization cycle 2 (INa/INa,Cycle 1): fraction of channels available; for Long Term Inactivation, depolarization cycle 4 (INa/INa,Cycle 1): DMSO 0.85 ± 0.04; for Long Term Inactivation, depolarization cycle 3 (INa/INa,Cycle 1): DMSO 0.86 ± 0.03; for Long Term Inactivation, depolarization cycle 2 (INa/INa,Cycle 1): DMSO 0.89 ± 0.03; for V1/2 of Steady-state Inactivation: DMSO –58.58 ± 1.90
T3 construct: expressed in transfected cells
Description: As such, in an effort to further investigate their seemingly inverse activities, 12 and 19 were selected for functional evaluation as modulators of Nav1.6. To do so, HEK293 cells stably expressing Nav1.6 (HEK-Nav1.6) were incubated for 30 min with 0.1% DMSO (control), 20 µM 12, or 20 µM 19. After incubation, the modulatory effects of these peptidomimetics on Nav1.6-mediated currents were assessed using whole-cell patch-clamp electrophysiology (Figure 5 and Table 4).
HEK293 cells were maintained in Dulbecco’s Modified Eagle Medium (DMEM) and F-12 (Invitrogen, Carlsbad, CA, USA), supplemented with 0.05% glucose, 0.5 mM pyruvate, 10% fetal bovine serum, 100 units/mL penicillin, and 100 µg/mL streptomycin (Invitrogen), and incubated at 37 °C with 5% CO2. The double stable HEK293 cell line expressing CD4-Nav1.6C-tail-NLuc and CLuc-FGF14 used for LCA experiments was described in a previous study and was maintained using selective antibiotics (0.5 mg/mL G418 and 5 µg/mL puromycin). HEK293 cells stably expressing the human Nav1.6 channel (hereafter referred to as HEK-Nav1.6 cells) were maintained similarly, except for the addition of 500 μg/mL G418 (Invitrogen) to maintain stable Nav1.6 expression. Cells were transfected at 80–90% confluence with equal amount (1 μg each) of plasmid pairs using Lipofectamine 3000 (Invitrogen, Waltham, MA, USA) according to the manufacturer’s instructions. HEK-Nav1.6 cells were washed and re-plated at very low density prior to electrophysiological recordings.
HEK293 cells stably expressing Nav1.6 (HEK-Nav1.6) were grown in culture as described above. Prior to experimentation, HEK-Nav1.6 cells were dissociated using Gibco TrypLE (Thermo Fisher Scientific, Walthman, MA, USA) and plated at low density onto glass coverslips situated at the base of wells in CELLSTAR® 24-Well Multi-Well Plates (Greiner Bio-One, Monroe, NC, USA). Cells were then incubated on glass cover slips for 2–3 h. After incubation, glass cover slips were transferred to the recording chamber containing 3 mL of extracellular solution comprised of the following salts (mM): 140 NaCl, 3 KCl, 1 MgCl2, 1 CaCl2, 10 HEPES, 10 glucose, pH 7.3. After incubating for thirty minutes in the extracellular solution containing either DMSO or experimental compound, recordings were then performed at room temperature (20–22 °C) using a MultiClamp 700B amplifier (Molecular Devices, Sunnyvale, CA) and borosilicate glass pipettes (resistance of 3–6 MΩ) containing intracellular solution comprised of the following salts (mM): 130 CH3O3SCs, 1 ethylene glycol tetraacetic acid (EGTA), 10 NaCl, 10 HEPES, pH 7.3. Dial settings on the amplifier were used to estimate membrane capacitance and series resistance and compensated for electronically by 70–80%. Prior to digitization and storage, data were acquired at 20 kHz and filtered at 5 kHz. Clampex 9.2 software (Molecular Devices), interfaced to the electrophysiological equipment using a Digidata 1200 analog-digital interface (Molecular Devices), was used to control all experimental parameters. To assess the relationship of INa and voltage, HEK-Nav1.6 cells were evoked by depolarizations to test potentials ranging from –100 to +60 mV from a holding potential of −70 mV, followed by a voltage pre-step pulse of −120 mV. To assess steady-state inactivation of Nav channels, HEK-Nav1.6 cells were evoked using a paired-pulse protocol in which cells were stepped, from the holding potential, to varying test potentials ranging from −120 to +20 mV (pre-pulse) prior to a test pulse to −20 mV.

FGF14 = target: T1, FGF14; assay: Surface plasmon resonance binding to FGF14; details: for koff: read-out: koff FGF14; for kon: read-out: kon FGF14
Nav1.6 channel [2] = target: T3, Nav1.6 channel; design: method as in PMID 30587448; details: previously reported, cited from earlier work
MSNs of the NAc = test system: MSNs of the NAc; design: method as in PMID 29359916; details: previously reported; cited from earlier work
[3] = test system: HEK293 cells (Clone V cells); details: positive control with known toxicity; cited from earlier work
[4] = target: T2, fibroblast growth factor 14 (FGF14), aa 64–252; assay: SPR; Biacore T100; FGF14 (17,896 RU) or Nav1.6 C-tail (6,800 RU) amine-coupled to CM5 chips; compounds 0.195–200 µM flowed at 60 µL/min, 25 °C, PBS with 0.005% Tween-20 and 2% DMSO; KD is the average of the 1:1 Langmuir kinetic fit and the steady-state fit
[5] = target: T2, fibroblast growth factor 14 (FGF14), aa 64–252; assay: as above; remark: listed apart in the source

T3 sequence (Q9UQD0 whole entry): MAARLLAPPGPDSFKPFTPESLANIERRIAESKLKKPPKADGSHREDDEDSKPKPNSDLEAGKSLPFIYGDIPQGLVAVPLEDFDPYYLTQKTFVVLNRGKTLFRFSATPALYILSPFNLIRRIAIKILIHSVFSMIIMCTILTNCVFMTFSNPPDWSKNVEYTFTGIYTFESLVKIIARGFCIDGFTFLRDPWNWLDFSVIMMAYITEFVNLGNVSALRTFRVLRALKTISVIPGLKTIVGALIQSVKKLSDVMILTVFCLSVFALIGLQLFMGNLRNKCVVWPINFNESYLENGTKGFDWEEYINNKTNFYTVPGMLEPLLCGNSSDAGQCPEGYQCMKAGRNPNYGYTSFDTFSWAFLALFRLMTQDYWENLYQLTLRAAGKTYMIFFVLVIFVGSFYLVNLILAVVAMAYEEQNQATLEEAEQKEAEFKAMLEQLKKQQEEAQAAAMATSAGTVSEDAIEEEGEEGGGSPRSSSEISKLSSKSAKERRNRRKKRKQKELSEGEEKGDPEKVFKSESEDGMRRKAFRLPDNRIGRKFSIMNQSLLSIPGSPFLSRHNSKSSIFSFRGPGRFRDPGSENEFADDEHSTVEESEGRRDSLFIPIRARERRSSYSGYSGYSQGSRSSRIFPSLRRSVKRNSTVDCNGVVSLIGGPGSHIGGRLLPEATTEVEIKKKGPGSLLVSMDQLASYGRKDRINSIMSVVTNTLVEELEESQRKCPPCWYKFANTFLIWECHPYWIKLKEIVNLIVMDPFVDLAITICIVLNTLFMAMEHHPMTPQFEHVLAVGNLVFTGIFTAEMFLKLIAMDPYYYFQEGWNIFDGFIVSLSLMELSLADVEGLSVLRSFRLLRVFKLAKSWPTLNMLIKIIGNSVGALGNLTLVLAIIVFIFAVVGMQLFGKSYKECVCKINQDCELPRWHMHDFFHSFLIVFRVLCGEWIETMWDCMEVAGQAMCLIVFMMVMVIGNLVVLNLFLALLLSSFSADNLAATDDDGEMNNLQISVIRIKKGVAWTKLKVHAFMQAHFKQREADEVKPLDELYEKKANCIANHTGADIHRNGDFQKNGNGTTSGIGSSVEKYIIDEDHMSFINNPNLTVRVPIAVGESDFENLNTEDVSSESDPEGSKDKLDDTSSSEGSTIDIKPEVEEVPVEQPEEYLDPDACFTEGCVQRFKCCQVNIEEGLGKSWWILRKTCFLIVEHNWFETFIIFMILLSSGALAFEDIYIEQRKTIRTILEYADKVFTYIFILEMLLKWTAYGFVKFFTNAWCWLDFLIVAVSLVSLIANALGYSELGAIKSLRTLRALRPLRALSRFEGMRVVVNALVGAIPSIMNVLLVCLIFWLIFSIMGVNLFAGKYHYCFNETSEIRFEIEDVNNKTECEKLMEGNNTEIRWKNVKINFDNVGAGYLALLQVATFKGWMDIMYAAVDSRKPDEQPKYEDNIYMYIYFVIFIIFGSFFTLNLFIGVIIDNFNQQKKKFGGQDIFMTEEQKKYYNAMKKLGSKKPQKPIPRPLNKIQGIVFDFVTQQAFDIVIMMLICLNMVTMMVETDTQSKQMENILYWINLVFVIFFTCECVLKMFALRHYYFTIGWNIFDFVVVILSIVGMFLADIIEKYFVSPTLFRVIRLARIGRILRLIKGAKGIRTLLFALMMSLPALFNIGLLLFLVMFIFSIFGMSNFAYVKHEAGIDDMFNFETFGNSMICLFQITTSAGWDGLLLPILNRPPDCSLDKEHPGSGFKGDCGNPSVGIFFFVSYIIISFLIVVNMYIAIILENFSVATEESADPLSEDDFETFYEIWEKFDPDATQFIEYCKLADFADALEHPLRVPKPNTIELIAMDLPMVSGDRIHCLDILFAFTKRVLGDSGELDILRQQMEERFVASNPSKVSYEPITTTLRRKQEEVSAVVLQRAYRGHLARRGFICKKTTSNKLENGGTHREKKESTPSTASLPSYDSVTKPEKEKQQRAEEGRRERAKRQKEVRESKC

Kd [4] | koff [4] | kon [4] | Molecule | koff (FGF14) | kon (FGF14) | further results
 |  |  | CC(C)[C@H](NC(=O)[C@H](Cc1ccc(OC(C)(C)C)cc1)NC(=O)[C@H](Cc1ccc(OC(C)(C)C)cc1)NC(=O)[C@H](CCC(=O)OC(C)(C)C)NC(=O)c1ccccc1)C(N)=O [Compound 19, tert-butyl (S)-5-(((S)-1-(((S)-1-(((S)-1-amino-3-methyl-1-oxobutan-2-yl)amino)-3-(4-(tert-butoxy)phenyl)-1-oxopropan-2-yl)amino)-3-(4-(tert-butoxy)phenyl)-1-oxopropan-2-yl)amino)-4-benzamido-5-oxopentanoate] (Bz-E(OtBu)Y(tBu)Y(tBu)V-NH2) | 0.013 s⁻¹ | 2060 M⁻¹ s⁻¹ | Tau of Fast Inactivation (Nav1.6 channel [1]; mean ± SEM): 1.12 ± 0.07 (7) ms; Long Term Inactivation, depolarization cycle 4 (INa/INa,Cycle 1) (Nav1.6 channel [1]): 0.73 ± 0.03 (8); Long Term Inactivation, depolarization cycle 3 (INa/INa,Cycle 1) (Nav1.6 channel [1]): 0.73 ± 0.02; Long Term Inactivation, depolarization cycle 2 (INa/INa,Cycle 1) (Nav1.6 channel [1]): 0.83 ± 0.02; V1/2 of Steady-state Inactivation (Nav1.6 channel [1]; mean ± SEM): –58.53 ± 1.69 (8) mV; Fold increase in binding to FGF14 (FGF14; 19 relative to 17 (Ac to benzoyl)): approximately 2 fold
 |  |  | CC(C)[C@H](NC(=O)[C@H](Cc1ccc(OC(C)(C)C)cc1)NC(=O)[C@H](Cc1ccc(OC(C)(C)C)cc1)NC(=O)OCC1c2ccccc2-c2ccccc21)C(N)=O [Compound 12, (9H-fluoren-9-yl)methyl ((S)-1-(((S)-1-(((S)-1-amino-3-methyl-1-oxobutan-2-yl)amino)-3-(4-(tert-butoxy)phenyl)-1-oxopropan-2-yl)amino)-3-(4-(tert-butoxy)phenyl)-1-oxopropan-2-yl)carbamate] (Fmoc-Tyr(tBu)-Tyr(tBu)-Val-NH2) | 0.0186 s⁻¹ | 6440 M⁻¹ s⁻¹ | Tau of Fast Inactivation (Nav1.6 channel [1]; mean ± SEM): 1.30 ± 0.11 (7) ms; Long Term Inactivation, depolarization cycle 4 (INa/INa,Cycle 1) (Nav1.6 channel [1]): 0.70 ± 0.04 (7); Long Term Inactivation, depolarization cycle 3 (INa/INa,Cycle 1) (Nav1.6 channel [1]): 0.76 ± 0.03; Long Term Inactivation, depolarization cycle 2 (INa/INa,Cycle 1) (Nav1.6 channel [1]): 0.88 ± 0.03; V1/2 of Activation (Nav1.6 channel [1]; mean ± SEM, DMSO –20.04 ± 0.85): –20.40 ± 0.89 (10) mV; V1/2 of Steady-state Inactivation (Nav1.6 channel [1]; mean ± SEM): –57.59 ± 0.56 (6) mV
 |  |  | CC(=O)N[C@@H](CCC(=O)OC(C)(C)C)C(=O)N[C@@H](Cc1ccc(OC(C)(C)C)cc1)C(=O)N[C@@H](Cc1ccc(OC(C)(C)C)cc1)C(=O)N[C@H](C(N)=O)C(C)C [Compound 17, tert-butyl (S)-4-acetamido-5-(((S)-1-(((S)-1-(((S)-1-amino-3-methyl-1-oxobutan-2-yl)amino)-3-(4-(tert-butoxy)phenyl)-1-oxopropan-2-yl)amino)-3-(4-(tert-butoxy)phenyl)-1-oxopropan-2-yl)amino)-5-oxopentanoate] (Ac-E(OtBu)Y(tBu)Y(tBu)V-NH2) | 0.088 s⁻¹ | 6030 M⁻¹ s⁻¹ | 
 |  |  | CC(C)C[C@H](NC(=O)[C@H](Cc1ccccc1)NC(=O)OCc1ccccc1)C(=O)N1CCC[C@H]1C(=O)N[C@@H](CCCCNC(=O)OC(C)(C)C)C(N)=O [ZL0177] (Cbz-FLPK(Boc)-NH2) |  |  | Nav1.6-mediated peak current density (Nav1.6 channel [2]): –26.65 ± 6.3 pA/pF; Voltage-dependence of Nav1.6 channel activation (Nav1.6 channel [2]; whole-cell patch-clamp): depolarizing shift in voltage-dependence of Nav1.6 channel activation
 |  |  | COC(=O)[C@H](CCCCNC(=O)OCC1c2ccccc2-c2ccccc21)NC(=O)[C@@H]1CCCN1C(=O)[C@H](CC(C)C)NC(=O)[C@H](Cc1ccccc1)NC(C)=O [ZL181] (Ac-FLPK(Fmoc)-OMe) |  |  | Firing frequencies in MSNs of the NAc (MSNs of the NAc): decreased maximal and instantaneous firing frequencies
 |  |  | CCCCCCCCCC(=O)N[C@@H](CCC(=O)OC(C)(C)C)C(=O)N[C@@H](Cc1ccc(OC(C)(C)C)cc1)C(=O)N[C@@H](Cc1ccc(OC(C)(C)C)cc1)C(=O)N[C@H](C(N)=O)C(C)C [Compound 22, tert-Butyl (S)-5-(((S)-1-(((S)-1-(((S)-1-amino-3-methyl-1-oxobutan-2-yl)amino)-3-(4-(tert-butoxy)phenyl)-1-oxopropan-2-yl)amino)-3-(4-(tert-butoxy)phenyl)-1-oxopropan-2-yl)amino)-4-decanamido-5-oxopentanoate] (Decanoyl-E(OtBu)Y(tBu)Y(tBu)V-NH2) | 0.109 s⁻¹ | 690 M⁻¹ s⁻¹ | 
 |  |  | CC/C(=C(\c1ccccc1)c1ccc(OCCN(C)C)cc1)c1ccccc1 [Tamoxifen] |  |  | Toxicity toward HEK293 cells [3]: toxic
6.49 µM | 0.013 s⁻¹ | 2060 M⁻¹ s⁻¹ | Bz-[Glu(OtBu)][Tyr(OtBu)][Tyr(OtBu)]V-NH2 (SMILES CC(C)[C@H](NC(=O)[C@H](Cc1ccc(OC(C)(C)C)cc1)NC(=O)[C@H](Cc1ccc(OC(C)(C)C)cc1)NC(=O)[C@H](CCC(=O)OC(C)(C)C)NC(=O)c1ccccc1)C(N)=O) [compound 19 (PW0204)] |  |  | Kd [5]: 6.3 µM
> 100 µM | 0.109 s⁻¹ | 690 M⁻¹ s⁻¹ | Decanoyl-[Glu(OtBu)][Tyr(OtBu)][Tyr(OtBu)]V-NH2 (SMILES CCCCCCCCCC(=O)N[C@@H](CCC(=O)OC(C)(C)C)C(=O)N[C@@H](Cc1ccc(OC(C)(C)C)cc1)C(=O)N[C@@H](Cc1ccc(OC(C)(C)C)cc1)C(=O)N[C@H](C(N)=O)C(C)C) [compound 22 (PW0207)] |  |  | 
14.3 µM | 0.088 s⁻¹ | 6030 M⁻¹ s⁻¹ | Ac-[Glu(OtBu)][Tyr(OtBu)][Tyr(OtBu)]V-NH2 (SMILES CC(=O)N[C@@H](CCC(=O)OC(C)(C)C)C(=O)N[C@@H](Cc1ccc(OC(C)(C)C)cc1)C(=O)N[C@@H](Cc1ccc(OC(C)(C)C)cc1)C(=O)N[C@H](C(N)=O)C(C)C) [compound 17 (PW0203)] |  |  | 
